Assay results reported in paper PMC5947694, “Structure of the mouse acidic amino acid decarboxylase GADL1” (Acta Crystallographica. Section F, Structural Biology …, 2018).

T1: MmGADL1 (mouse glutamic acid decarboxylase-like protein 1) (Mus musculus, UniProt Q80WP8)
T1 construct: gene Gadl1; residues 1-502, N-terminal His6 tag and TEV site kept; expressed in E. coli; homodimer; residues 11-502 built, loop about 340-350 disordered
T1 sequence (Q80WP8 49-526 isoform Q80WP8-2): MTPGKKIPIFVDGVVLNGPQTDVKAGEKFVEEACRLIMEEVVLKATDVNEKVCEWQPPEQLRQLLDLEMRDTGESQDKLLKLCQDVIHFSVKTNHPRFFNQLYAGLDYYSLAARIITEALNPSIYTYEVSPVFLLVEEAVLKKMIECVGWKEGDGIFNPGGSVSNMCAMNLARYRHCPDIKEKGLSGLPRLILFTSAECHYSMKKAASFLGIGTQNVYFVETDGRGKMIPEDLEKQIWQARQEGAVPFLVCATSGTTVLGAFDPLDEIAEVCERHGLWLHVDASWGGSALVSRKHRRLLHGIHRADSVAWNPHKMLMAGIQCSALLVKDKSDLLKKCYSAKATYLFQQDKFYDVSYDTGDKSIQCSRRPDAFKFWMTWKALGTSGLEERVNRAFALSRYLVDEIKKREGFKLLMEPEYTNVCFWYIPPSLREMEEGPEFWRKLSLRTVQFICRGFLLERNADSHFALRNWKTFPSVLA


Assays:
[1] = biological target: T1, MmGADL1 (mouse glutamic acid decarboxylase-like protein 1); assay: X-ray crystallography, […] Å (crystal form […]); format: binding; details: covalent; Schiff base (internal aldimine) with Lys314; active site at dimer interface, both sites occupied
[2] = biological target: the molecule itself; assay: SAXS; 1.6-6.5 mg/ml in 20 mM HEPES pH 7.4, 200 mM NaCl, 293 K; molecular mass from forward scattering I(0) against a monomeric BSA standard

| Molecule | X-ray crystallography, 3.0 Å (crystal form 1) [1] | stoichiometry N [2] |
| --- | --- | --- |
| Cc1ncc(COP(=O)(O)O)c(C=O)c1O [PLP] | Both active sites in the dimer are occupied by the PLP cofactor, which is covalently bound |  |
| mouse glutamic acid decarboxylase-like protein 1 (MmGADL1), His6-tagged, residues 1-502 (enzyme, PLP covalently bound to the N-epsilon atom of Lys314 through a Schiff base linkage (seen in the crystal)) MGPHHHHHHLESTSLYKKAGSENLYFQGMTPGKKIPIFVDGVVLNGPQTDVKAGEKFVEEACRLIMEEVVLKATDVNEKVCEWQPPEQLRQLLDLEMRDTGESQDKLLKLCQDVIHFSVKTNHPRFFNQLYAGLDYYSLAARIITEALNPSIYTYEVSPVFLLVEEAVLKKMIECVGWKEGDGIFNPGGSVSNMCAMNLARYRHCPDIKEKGLSGLPRLILFTSAECHYSMKKAASFLGIGTQNVYFVETDGRGKMIPEDLEKQIWQARQEGAVPFLVCATSGTTVLGAFDPLDEIAEVCERHGLWLHVDASWGGSALVSRKHRRLLHGIHRADSVAWNPHKMLMAGIQCSALLVKDKSDLLKKCYSAKATYLFQQDKFYDVSYDTGDKSIQCSRRPDAFKFWMTWKALGTSGLEERVNRAFALSRYLVDEIKKREGFKLLMEPEYTNVCFWYIPPSLREMEEGPEFWRKLSLVAPAIKEKMMKKGSLMLGYQPHRGKVNFFRQVVISPQVSREDMDFLLDEIDSLGRDM |  | 2 ratio to theoretical monomer |
